“And” between values parts separate entries of the source, which are not always exact repeats. Identical values can stand only once. “Also recorded” adds a separate entry of the source. Like-named read-outs stand apart in the source and are kept apart here.
What was measured:
[1] = Pharmacokinetic experiments in rats (IV, oral suspension, oral solution); format: in vivo; settings: rat; for bioavailability: versus mean IV AUCINF, adjusted for dose
Description: The oral suspension formulation was prepared by suspending the test article in 5% PEG-200/95% of a 0.5% solution of methylcellulose. The concentration of the test article was such that a dosing volume of 10 mL/kg delivered the intended dose level. The oral solution formulations of NVX-144 and NVX-412 were prepared by dissolving the test article in 10% by volume dimethyl acetamide, followed by 60% by volume PEG-400, and then adding slowly a solution of 30% Captisol® in 50 mM lactic acid to provide the remaining 30% of volume. The concentration of the test article was such that a dosing volume of 10 mL/kg delivered the intended dose level. The IV formulation of NVX-412 was prepared by dissolving the test article in 10% by volume dimethyl acetamide, followed by 10% by volume PEG-400, and then adding slowly a solution of 10% Captisol® in 50 mM lactic acid to provide the remaining 80% of volume. The concentration of the test articles was such that a dosing volume of 2.5 mL/kg delivered the intended dose level. The doses administered were based on the body weight of each animal taken shortly before dosing. The formulations were used immediately after preparation.
A total of 15 rats were assigned to the study. Five groups of three male rats each comprised the study. Each group was treated once by oral gavage or intravenous injection via the tail vein as specified in Table 3 below.
The animals were fasted overnight prior to dosing and the feed returned approximately 2 hours post-dosing. The dose for each animal was based on the most recent body weight. Oral doses were administered by gavage. Animals received 10 mL/kg per single oral dose. Intravenous doses were administered by tail vein injection. The dose for each animal was based on the most recent body weight. Animals were dosed at 2.5 mL/kg per single intravenous dose.
Blood was collected from the animals in Groups 1 through 5 for pharmacokinetic analysis. Approximately 0.3 mL of blood was collected in potassium EDTA tubes via the orbital plexus at four time points (30 minutes, 1 hour, 4 hours, and 8 hours post-dose) from each rat treated by the oral route, and the blood samples were processed to prepare plasma. Blood was collected at four time points (5 minutes, 30 minutes, 1 hour, and 2 hours post-dose) from each rat treated by the intravenous route, and the blood samples were processed to prepare plasma. Animals were terminated (without necropsy) following their final sample collection.
The whole blood samples were centrifuged (˜1500×g) for a minimum of 10 minutes in a refrigerated centrifuge (set at ˜5° C.). Plasma was prepared and transferred within 30 minutes of blood collection/centrifugation to appropriately labeled tubes. The tubes were then frozen and stored in the dark at ≦−70° C. until analysis. The plasma samples were analyzed by LC-MS/MS to determine the plasma concentrations of NVX-144 and NVX-412. Pharmacokinetic analysis of the plasma concentration data was conducted using non-compartmental analysis with WinNonlin Version 4.1.

[2] = Salt formation experiments / physical characteristics of solid forms; format: physicochemical; settings: suitable for pharmaceutical formulation
Description: Thus, a series of experiments was conducted to assess the preparation of NVX-144 salts of acids other than hydrochloric acid as possible novel compounds better suited to pharmaceutical preparations. […] As expected, NVX-144 base readily formed salts with strong organic acids.
Although oxalic acid co-crystals are rare, Trask et al. have reported a co-crystal of caffeine with oxalic acid (see Trask et al., “Pharmaceutical Cocrystallization: Engineering a Remedy for Caffeine Hydration,” Crystal Growth & Design, 5, 1013-21 (2005)).
Thus NVX-144 would not be expected to form a salt with oxalic acid, a relatively strong dicarboxylic acid.

[3] = male, plasma, po, 20 mg/kg, Group 5, PO-Solution 20 mg/kg, individual animals
[4] = Group 3, PO-Suspension 20 mg/kg, Mean N=2
[5] = Group 3, PO-Suspension 20 mg/kg, individual animals
[6] = Group 5, PO-Solution 20 mg/kg, Mean N=3
[7] = Group 5, PO-Solution 20 mg/kg, individual animals
[8] = IV 5 mg/kg, individual animals, 5 mg/kg

AUC [1, 3]: 2390 ng·h/mL | AUC(0-inf) [1, 3]: 2400 ng·h/mL | Cmax ([1]; male, plasma, po, 20 mg/kg, Group 5, PO-Solution 20 mg/kg, individual animals, read-out: Cmax): 732 ng/mL | half-life ([1]; male, plasma, po, 20 mg/kg, Group 5, PO-Solution 20 mg/kg, individual animals, read-out: T ½ (converted)): 1.18 h | Tmax ([1]; male, plasma, po, 20 mg/kg, Group 5, PO-Solution 20 mg/kg, individual animals, read-out: Tmax): 0.5 to 1 h | bioavailability ([1]; male, plasma, po, 20 mg/kg, Group 5, PO-Solution 20 mg/kg, individual animals, read-out: Bioavailability): 45.7% | plasma concentration ([1]; Group 3, PO-Suspension 20 mg/kg, 0.5 hr, individual animals): 386.99 ng/mL and 573.34 ng/mL | plasma concentration ([1]; Group 3, PO-Suspension 20 mg/kg, 1 hr, individual animals): 464.23 ng/mL and 584.12 ng/mL | plasma concentration ([1]; Group 3, PO-Suspension 20 mg/kg, 4 hr, individual animals): 181.80 ng/mL and 249.34 ng/mL | AUC % Extrap [1, 4]: 0.68% | AUCINF [1, 4]: 2306.62 ng·h/mL | T ½ [1, 4]: 1.15 h | Cmax ([1]; Group 3, PO-Suspension 20 mg/kg, Mean N=3): 524.61 ng/mL | AUC % Extrap [1, 5]: 1.00% and 0.36% | AUCINF [1, 5]: 2200.54 ng·h/mL | AUCall [1, 5]: 1642.21 ng·h/mL and 2192.52 ng·h/mL | Cmax [1, 5]: 464.23 ng/mL and 584.12 ng/mL | T ½ [1, 5]: 1.02 h | bioavailability [1, 5]: 41.9% | plasma concentration ([1]; Group 5, PO-Solution 20 mg/kg, 0.5 hr, individual animals): 635.82 ng/mL and 509.37 ng/mL | plasma concentration ([1]; Group 5, PO-Solution 20 mg/kg, 1 hr, individual animals): 686.88 ng/mL and 489.07 ng/mL | plasma concentration ([1]; Group 5, PO-Solution 20 mg/kg, 4 hr, individual animals): 171.97 ng/mL and 298.24 ng/mL | AUC % Extrap [1, 6]: 1.73% | Cmax [1, 6]: 642.71 ng/mL | T ½ [1, 6]: 1.37 h | AUC % Extrap [1, 7]: 0.61% and 0.34% and 4.24% | AUCINF [1, 7]: 2139.39 ng·h/mL and 2322.68 ng·h/mL | AUCall [1, 7]: 2132.13 ng·h/mL and 2224.16 ng·h/mL | Cmax [1, 7]: 686.89 ng/mL and 509.37 ng/mL | T ½ [1, 7]: 0.98 h and 1.96 h | Tmax [1, 7]: 0.5 h | bioavailability [1, 7]: 40.7% and 44.2% | plasma concentration ([1]; IV 5 mg/kg, 0.083 h, individual animals, 5 mg/kg): 1716.72 ng/mL and 2001.77 ng/mL | plasma concentration ([1]; IV 5 mg/kg, 0.5 h, individual animals, 5 mg/kg): 481.82 ng/mL and 461.19 ng/mL | plasma concentration ([1]; IV 5 mg/kg, 1 h, individual animals, 5 mg/kg): 278.84 ng/mL and 253.02 ng/mL | plasma concentration ([1]; IV 5 mg/kg, 2 h, individual animals, 5 mg/kg): 185.19 ng/mL and 143.93 ng/mL | AUC % Extrap ([1]; IV 5 mg/kg, Mean of 3): 18.74% | AUCINF ([1]; IV 5 mg/kg, Mean of 3, 5 mg/kg): 1314.5 ng·h/mL | Cl ([1]; IV 5 mg/kg, Mean of 3, 5 mg/kg): 63.43 mL/min/kg and 63.4273 mL/min/kg | Cmax ([1]; IV 5 mg/kg, Mean of 3, 5 mg/kg): 1842.5 ng/mL | T ½ ([1]; IV 5 mg/kg, Mean of 3, 5 mg/kg): 1.03 h | Vss ([1]; IV 5 mg/kg, Mean of 3, 5 mg/kg): 3.98512 L/kg | AUC % Extrap [1, 8]: 18.44% and 22.68% and 15.1% | AUCINF [1, 8]: 1349.72 ng·h/mL and 1277.84 ng·h/mL | AUCall [1, 8]: 1043.56 ng·h/mL and 1084.89 ng·h/mL | Cl [1, 8]: 61.7413 mL/min/kg and 65.2145 mL/min/kg | Cmax [1, 8]: 1716.7 ng/mL and 2001.8 ng/mL | T ½ [1, 8]: 1.15 h and 0.93 h | Vss [1, 8]: 4.55297 L/kg and 3.44635 L/kg | oral absorption ([1]; administered as a solution or suspension): moderate | difference in oral absorption between NVX-412 and NVX-144 ([1]; dosed as a solution): no significant difference | hydrate formation / stability [2]: forms stable mono- and di-hydrates
Compound: O=C(NNc1nc2cc(F)ccc2n2cccc12)c1cnccn1.O=C(O)C(=O)O [NVX-412, N′-(7-fluoropyrrolo[1,2a]quinoxalin-4-yl)pyrazine-2-carbohydrazide oxalic acid co-crystal]
plasma concentration ([1]; Group 3, PO-Suspension 20 mg/kg, 8 hr, individual animals): 13.07 ng/mL and BLQ (BLQ = Below the Limit of Quantitation <5 ng/mL) and 5.48 ng/mL | plasma concentration ([1]; Group 5, PO-Solution 20 mg/kg, 8 hr, individual animals): 8.53 ng/mL and 5.14 ng/mL and 34.89 ng/mL | oral absorption / bioavailability of NVX-412 over NVX-144 free base ([1]; dosed as a suspension): more bioavailable; also recorded: slight improvement

Source: US8058437B2, “(Pyrroloquinoxalinyl) pyrazinecarbohydrazide-oxalic acid co-crystal for treatment of cancer and other diseases” (Novelix Pharmaceuticals, Inc., priority 2008, dated 2011)
